How the values were obtained:
[1] = biological target: T1, catalytic domain of Human PARP (Homo sapiens, UniProt P09874); experiment: Biacore surface plasmon resonance affinity assay (dissociation constant KD); format: binding; conditions: pKD=-log(KD), KD in molar concentration; Biacore T100, 25° C.
T1 construct: The catalytic domain of Human PARP was cloned and prepared; made in house
Experimental: Dissociation Constant (KD) from Surface Plasmon Resonance
The catalytic domain of Human PARP was cloned and prepared as described in Kinoshita, T.; Nakanishi, I.; Warizaya, M.; Iwashita, A.; Kido, Y.; Hattori, K. and Fujii, T. 2006 FEBS Letters 556, 43-46. Purified enzyme was stored at −80° C. in 25 mM Tris(hydroxymethyl)aminomethane (Tris) pH 7.4, 150 mM NaCl, 2 mM dithiothreitol (DTT) at a concentration of 6 mg/ml.
Biacore affinity assays for test compounds were conducted on a Biacore T100 (GE Healthcare) as follows. A Series S Sensor Chip CM5 (part number BR-1006-68, GE Healthcare) was activated for amide coupling with an Amine Coupling Kit (part number BR-1000-50, GE Healthcare) as described by the manufacturer. The mobile phase buffer consisted of Biacore buffer HBS-P (part number BR-1003-68, GE Healthcare) supplemented with 1% v/v dimethylsulfoxide (DMSO), 0.5 mM Tris(2-carboxyethyl)phosphine hydrochloride (TCEP), and 5 mM MgCl2. Enzyme samples (2 μl/6 mg/ml) stored at −80° C. were diluted to 0.080 mg/ml with 10 mM 4-morpholineethanesulfonic acid (MES) pH 6.5 and then mounted on the activated Biacore CM5 chip at a flow rate of 10 μl/min for 240 seconds. When successfully mounted, a signal of approximately 8,000 reflective units was observed. Test compounds were diluted 9 times 2-fold serially in mobile phase buffer (listed above) at 1% v/v DMSO final to generate a concentration gradient bracketing their anticipated KDs. Biacore mounted PARP was given a 1 minute exposure (association phase) to various concentrations of test compounds to observe a steady state equilibrium or an on rate. The exposure was followed with a dissociation phase of 5 minutes. The association and dissociation phases were at a flow rate of 50 μl/min and a temperature of 25° C.
Parameters Rmax (response at saturation) and KD (binding constant) were calculated through a nonlinear least squares fitting of the equation to the data by use of the Biacore T100 analysis software.
Parameter optimization was through a nonlinear least squares analysis of the association phase Response=Rmax*(1−exp(−(kon[cmpd]+koff)*t)) and dissociation phase Response=[…] by use of the Biacore T100 analysis software. The binding constant KD was calculated from the definition KD=koff/kon

[2] = tested on: Jurkat cell line; experiment: PARP cellular chemopotentiation assay (MTS cell viability with and without TMZ); format: cell-based; conditions: ratio of EC50 for inhibition of cell viability without and with 100 μM TMZ; Jurkat cells, 96 hours of treatment
Procedure, shortened: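 Jurkat cells, 10,000/well, pre-cultured 24 h, then treated 96 h with serial compound dilutions (0.5% DMSO) with or without 100 μM TMZ. Viability by MTS conversion (OD490), normalized to DMSO controls; EC50 from curve fits, PF50 = EC50 without TMZ / EC50 with TMZ.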

[3] = biological target: T2, PARP (Homo sapiens, UniProt P09874); experiment: PARP ELISA colorimetric assay of inhibition of PARP catalytic activity (IC50); format: biochemical; conditions: pIC50=-log(IC50), IC50 in molar concentration; ELISA-based PARP kit, 10 minutes of catalysis
T2 construct: purchased Trevigen 4684-096-01 (enzyme); kit 4684-096-K HT
Procedure, shortened: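 Human PARP was added as a 0.1 nM solution to histone-coated wells with compound for a 10-min ambient preincubation. The reaction was started with 100 μM NAD+ solution plus activated DNA and run 10 min. PAR formation was detected by anti-PAR ELISA, colorimetric. IC50 came from a 12-point, 3-fold gradient fitted by nonlinear least squares to a Hill equation.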

T2 sequence (P09874 whole entry): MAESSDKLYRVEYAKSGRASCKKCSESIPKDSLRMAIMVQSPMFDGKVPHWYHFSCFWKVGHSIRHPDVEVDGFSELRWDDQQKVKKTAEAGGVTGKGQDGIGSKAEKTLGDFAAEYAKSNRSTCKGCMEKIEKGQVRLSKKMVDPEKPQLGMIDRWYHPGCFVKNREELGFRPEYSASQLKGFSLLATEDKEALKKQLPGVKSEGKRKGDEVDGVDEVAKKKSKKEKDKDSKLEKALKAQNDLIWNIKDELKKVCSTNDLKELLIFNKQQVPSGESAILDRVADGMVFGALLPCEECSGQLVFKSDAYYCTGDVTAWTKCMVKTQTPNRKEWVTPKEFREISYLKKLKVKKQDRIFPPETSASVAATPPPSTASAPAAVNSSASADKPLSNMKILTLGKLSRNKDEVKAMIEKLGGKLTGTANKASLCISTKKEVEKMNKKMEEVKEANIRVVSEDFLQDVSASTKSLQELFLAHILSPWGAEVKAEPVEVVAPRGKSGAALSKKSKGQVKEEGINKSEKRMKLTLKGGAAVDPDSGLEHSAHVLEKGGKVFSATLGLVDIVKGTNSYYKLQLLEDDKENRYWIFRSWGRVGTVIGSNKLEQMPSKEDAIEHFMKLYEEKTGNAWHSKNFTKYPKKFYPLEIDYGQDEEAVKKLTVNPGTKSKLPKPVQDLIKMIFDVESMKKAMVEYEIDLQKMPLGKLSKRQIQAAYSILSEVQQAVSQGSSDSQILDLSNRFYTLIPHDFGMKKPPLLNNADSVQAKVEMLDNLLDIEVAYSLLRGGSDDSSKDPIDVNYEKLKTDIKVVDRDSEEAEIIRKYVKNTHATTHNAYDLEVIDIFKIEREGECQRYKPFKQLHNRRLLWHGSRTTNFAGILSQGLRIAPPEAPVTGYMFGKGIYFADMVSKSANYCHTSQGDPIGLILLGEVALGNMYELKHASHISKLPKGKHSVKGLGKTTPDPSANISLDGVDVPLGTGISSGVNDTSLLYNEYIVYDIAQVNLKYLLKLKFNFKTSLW
T1 sequence (P09874 788-1014 limits assumed): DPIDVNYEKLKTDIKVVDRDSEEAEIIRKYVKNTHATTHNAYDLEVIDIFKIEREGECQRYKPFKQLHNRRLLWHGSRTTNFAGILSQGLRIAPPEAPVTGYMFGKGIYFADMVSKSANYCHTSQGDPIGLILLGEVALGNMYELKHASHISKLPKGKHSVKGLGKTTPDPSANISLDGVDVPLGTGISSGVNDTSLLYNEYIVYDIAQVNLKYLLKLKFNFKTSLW

| SMILES | Kd [1] [nM] | PF50 [2] | melting point [°C] | IC50 [3] [nM] |
| --- | --- | --- | --- | --- |
| O=C1Nc2cc(CN3CC=C(c4ccc(Cl)cc4)CC3)cnc2N2CCC[C@@H]12 [Compound 2, (S)-3-((4-(4-chlorophenyl)-5,6-dihydropyridin-1(2H)-yl)methyl)-6a,7,8,9-tetrahydropyrido[3,2-e]pyrrolo[1,2-a]pyrazin-6(5H)-one] | < 31.6 | >2000 | 234 to 235 |  |
| N#Cc1ccc(N2CCN(Cc3cnc4c(c3)NC(=O)[C@@H]3CCCN43)CC2)cc1 [Compound 4, (S)-4-(4-((6-oxo-5,6,6a,7,8,9-hexahydropyrido[3,2-e]pyrrolo[1,2-a]pyrazin-3-yl)methyl)piperazin-1-yl)benzonitrile] |  | >2000 | 252 | 15.8 to 39.8 |
| N#Cc1ccc(N2CCN(Cc3cnc4c(c3)NC(=O)[C@@H]3CCCN43)CC2)nc1 [Compound 5, (S)-6-(4-((6-oxo-5,6,6a,7,8,9-hexahydropyrido[3,2-e]pyrrolo[1,2-a]pyrazin-3-yl)methyl)piperazin-1-yl)nicotinonitrile] | < 31.6 | >5000 | 252 to 256 | 15.8 to 39.8 |
| O=C(NC1CC1)c1ccc(N2CCN(Cc3cnc4c(c3)NC(=O)[C@@H]3CCCN43)CC2)cc1 [Compound 13, (S)—N-cyclopropyl-4-(4-((6-oxo-5,6,6a,7,8,9-hexahydropyrido[3,2-e]pyrrolo[1,2-a]pyrazin-3-yl)methyl)piperazin-1-yl)benzamide] |  | >5000 | 265 to 268 | 15.8 to 39.8 |
| N#Cc1ccc(N2CCN(Cc3cnc4c(c3)NC(=O)[C@@H]3CCCCN43)CC2)cc1 [Compound 71, (S)-4-(4-((6-oxo-6,6a,7,8,9,10-hexahydro-5H-dipyrido[1,2-a:3′,2′-e]pyrazin-3-yl)methyl)piperazin-1-yl)benzonitrile] |  | >500 | 212.2 | ≤ 12.6 |
| CCNC(=O)c1ccc(N2CCN(Cc3cnc4c(c3)NC(=O)[C@@H]3CCCCN43)CC2)cc1 [Compound 73, (S)—N-ethyl-4-(4-((6-oxo-6,6a,7,8,9,10-hexahydro-5H-dipyrido[1,2-a:3′,2′-e]pyrazin-3-yl)methyl)piperazin-1-yl)benzamide] |  | >2000 | 232.6 | ≤ 12.6 |
| CCNC(=O)c1ccc(N2CCN(Cc3cnc4c(c3)NC(=O)[C@@H]3CSCCN43)CC2)cc1 [Compound 92, (R)—N-ethyl-4-(4-((6-oxo-5,6,6a,7,9,10-hexahydropyrido[3,2-e][1,4]thiazino[4,3-a]pyrazin-3-yl)methyl)piperazin-1-yl)benzamide] |  | >5000 | 288.9 |  |
| CCOC(=O)c1ccc(N2CCN(Cc3cnc4c(c3)NC(=O)[C@@H]3CCCN43)CC2)cc1 [Compound 101, (S)-ethyl 4-(4-((6-oxo-5,6,6a,7,8,9-hexahydropyrido[3,2-e]pyrrolo[1,2-a]pyrazin-3-yl)methyl)piperazin-1-yl)benzoate] |  | >10 | 242 | ≥ 50.1 |
| O=C1Nc2cc(CN3CCN(c4ccc(C(=O)N5CCCC5)cc4)CC3)cnc2N2CCC[C@@H]12 [Compound 138, (S)-3-((4-(4-(pyrrolidine-1-carbonyl)phenyl)piperazin-1-yl)methyl)-6a,7,8,9-tetrahydropyrido[3,2-e]pyrrolo[1,2-a]pyrazin-6(5H)-one] |  | ≧0 | 121.3 | ≥ 50.1 |
| CN(C)C(=O)c1ccc(N2CCN(Cc3cnc4c(c3)NC(=O)[C@@H]3CCCN43)CC2)cc1 [Compound 139, (S)—N,N-dimethyl-4-(4-((6-oxo-5,6,6a,7,8,9-hexahydropyrido[3,2-e]pyrrolo[1,2-a]pyrazin-3-yl)methyl)piperazin-1-yl)benzamide] |  | ≧0 | 99.2 | ≥ 50.1 |
| CCN(C)C(=O)c1ccc(N2CCN(Cc3cnc4c(c3)NC(=O)[C@@H]3CCCN43)CC2)cc1 [Compound 140, (S)—N-ethyl-N-methyl-4-(4-((6-oxo-5,6,6a,7,8,9-hexahydropyrido[3,2-e]pyrrolo[1,2-a]pyrazin-3-yl)methyl)piperazin-1-yl)benzamide] |  | ≧0 | 91.9 | ≥ 50.1 |
| Cc1cc(C(=O)NC2CC2)ccc1N1CCN(Cc2cnc3c(c2)NC(=O)[C@@H]2CCCN32)CC1 [Compound 142, (S)—N-cyclopropyl-3-methyl-4-(4-((6-oxo-5,6,6a,7,8,9-hexahydropyrido[3,2-e]pyrrolo[1,2-a]pyrazin-3-yl)methyl)piperazin-1-yl)benzamide] |  | >2000 | 226.7 to 233.5 | ≤ 12.6 |
